Measurements taken from the supplement of paper PMC10307832.

How the values were obtained:
Assay in all cases: relative viability (nuclei count vs DMSO), 5 days (fraction); higher = more cells survive
[1] = compound: CN1C=C(C2=CC=CC=C21)/C=C\3/C4=C(C=CC=N4)NC3=O + CC1(C)CCC(c2ccc(Cl)cc2)=C(CN2CCN(c3ccc(C(=O)NS(=O)(=O)c4ccc(N[C@H](CCN5CCOCC5)CSc5ccccc5)c(S(=O)(=O)C(F)(F)F)c4)cc3)CC2)C1 [Navitoclax] (partner 0.5 µM)
Procedure, shortened: (§1)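 A single step with final 0.05% Triton X-100, 1% formaldehyde and 1 ug/ml Hoechst fixed the cells and stained nuclei 5 days after treatment. Lung cancer cell lines in 1536-well plates had been treated by pin tool the day after seeding with one drug alone or a fixed anchor-drug dose plus five library-drug doses (not always all listed) in √10 steps, and nuclei were counted on 4× images. Relative viability is the ratio of nuclei in treated wells to nuclei in vehicle wells, taken as the median of duplicate plates.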

[2] = compound: CC(=O)Nc1cccc(-n2c(=O)n(C3CC3)c(=O)c3c(Nc4ccc(I)cc4F)n(C)c(=O)c(C)c32)c1 [Trametinib] + Cc1nc(NC(=O)N2CCC[C@H]2C(N)=O)sc1-c1ccnc(C(C)(C)C(F)(F)F)c1 [Alpelisib] (partner 2 µM)
Procedure, shortened: as §1

[3] = compound: CC(=O)Nc1cccc(-n2c(=O)n(C3CC3)c(=O)c3c(Nc4ccc(I)cc4F)n(C)c(=O)c(C)c32)c1 [Trametinib] + NC(=O)Nc1cc(-c2cccc(F)c2)sc1C(=O)N[C@H]1CCCNC1 [AZD7762] (partner 0.2 µM)
Procedure, shortened: as §1

[4] = compound: CC(=O)Nc1cccc(-n2c(=O)n(C3CC3)c(=O)c3c(Nc4ccc(I)cc4F)n(C)c(=O)c(C)c32)c1 [Trametinib] + CCNC(=O)c1noc(-c2cc(C(C)C)c(O)cc2O)c1-c1ccc(CN2CCOCC2)cc1 [Luminespib] (partner 0.01 µM)
Procedure, shortened: as §1

Cell Line | relative viability ([1]; first compound 0.02 µM) | relative viability ([1]; first compound 0.06325 µM) | relative viability ([1]; first compound 0.2 µM) | relative viability ([1]; first compound 0.6325 µM) | relative viability ([1]; first compound 2 µM) | relative viability ([2]; first compound 0.0025 µM) | relative viability ([2]; first compound 0.007906 µM) | relative viability ([2]; first compound 0.025 µM) | relative viability ([2]; first compound 0.07906 µM) | relative viability ([2]; first compound 0.25 µM) | relative viability ([3]; first compound 0.0025 µM) | relative viability ([3]; first compound 0.007906 µM) | relative viability ([3]; first compound 0.025 µM) | relative viability ([3]; first compound 0.07906 µM) | relative viability ([3]; first compound 0.25 µM) | relative viability ([4]; first compound 0.0025 µM) | relative viability ([4]; first compound 0.007906 µM) | relative viability ([4]; first compound 0.025 µM) | relative viability ([4]; first compound 0.07906 µM) | relative viability ([4]; first compound 0.25 µM)
HCC-78 | 0.692 | 0.71 | 0.589 | 0.778 | 0.758 | 0.304 | 0.242 | 0.226 | 0.205 | 0.224 | 0.661 | 0.484 | 0.393 | 0.427 | 0.46 |  |  |  |  | 
HCC-366 | 0.945 | 0.994 | 1.13 | 1.07 | 0.986 | 0.214 | 0.241 | 0.182 | 0.143 | 0.0782 | 0.24 | 0.24 | 0.323 | 0.167 | 0.143 |  |  |  |  | 
HCC-827 | 0.956 | 1.02 |  | 1.03 | 0.986 | 1.01 | 0.753 | 0.699 | 0.591 | 0.399 | 0.226 | 0.17 | 0.153 | 0.183 | 0.161 | 0.63 | 0.24 | 0.219 | 0.228 | 0.153
IA-LM | 1.05 | 0.833 | 0.731 | 0.749 | 0.541 | 0.656 | 0.393 | 0.129 | 0.104 | 0.109 |  |  |  |  |  |  |  |  |  | 
LCLC-103H |  |  |  |  |  | 0.974 | 0.875 | 0.665 | 0.81 | 0.624 | 0.835 | 0.69 | 0.611 | 0.758 | 0.644 | 0.769 | 0.761 | 0.735 | 0.767 | 0.668
NCI-H358 |  |  |  |  |  | 0.563 | 0.373 | 0.277 | 0.269 | 0.248 | 0.388 | 0.39 | 0.331 | 0.264 | 0.292 | 0.264 | 0.18 | 0.132 | 0.107 | 0.11
NCI-H520 | 0.935 | 1.03 | 1.09 | 1.17 | 1.17 | 0.768 | 0.887 | 0.81 | 0.818 | 0.693 |  |  |  |  |  | 0.252 | 0.2 | 0.259 | 0.253 | 0.218
NCI-H522 |  |  |  |  |  |  |  |  |  |  | 0.875 | 1.01 | 0.703 | 0.69 | 0.88 | 1.04 | 0.917 | 1 | 0.844 | 0.574
NCI-H650 |  |  |  |  |  | 1.31 | 1.42 | 1.38 | 1.35 | 0.71 | 1.06 | 1.15 | 1.03 | 0.614 | 0.655 | 0.862 | 0.828 | 0.659 | 0.578 | 0.375
NCI-H661 |  |  |  |  |  | 0.607 | 0.654 | 0.411 | 0.257 | 0.264 |  |  |  |  |  | 0.914 | 0.917 | 0.888 | 0.702 | 0.641
NCI-H1299 | 1.04 | 0.988 | 1.02 | 1.12 | 1.02 | 1.04 | 1.08 | 0.911 | 0.799 | 0.744 |  |  |  |  |  |  |  |  |  | 
NCI-H1563 |  |  |  |  |  | 0.94 | 0.985 | 0.992 | 0.968 | 0.628 |  |  |  |  |  | 0.515 | 0.481 | 0.505 | 0.476 | 0.569
NCI-H1623 |  |  |  |  |  |  |  |  |  |  |  |  |  |  |  | 0.593 | 0.406 | 0.315 | 0.287 | 0.344
NCI-H1648 |  |  |  |  |  |  |  |  |  |  | 0.69 | 0.716 | 0.879 | 0.78 | 0.441 |  |  |  |  | 
NCI-H1650 | 0.901 | 0.984 | 0.927 | 0.918 | 1.19 |  |  |  |  |  |  |  |  |  |  | 0.209 | 0.2 | 0.176 | 0.174 | 0.211
NCI-H1703 | 1.06 | 1.03 | 1.01 | 0.966 | 0.998 | 0.367 | 0.373 | 0.28 | 0.306 | 0.29 | 0.141 | 0.126 | 0.144 | 0.101 | 0.112 |  |  |  |  | 
NCI-H2009 | 1.11 | 1.12 | 1.2 | 1.24 | 1.24 | 0.88 | 0.72 | 0.444 | 0.485 | 0.362 |  |  |  |  |  | 1.03 | 0.623 | 0.406 | 0.26 | 0.315
NCI-H2023 | 1.06 | 0.935 | 0.961 | 1.03 | 0.996 | 0.38 | 0.486 | 0.315 | 0.352 | 0.288 |  |  |  |  |  | 0.582 | 0.403 | 0.51 | 0.575 | 0.197
NCI-H2228 | 1.22 | 0.796 |  | 0.67 | 0.812 | 0.749 | 0.527 | 0.488 | 0.331 | 0.194 |  |  |  |  |  | 0.15 | 0.0886 | 0.134 | 0.0863 | 0.112
NCI-H2342 |  |  |  |  |  |  |  |  |  |  | 0.487 | 0.437 | 0.318 | 0.411 | 0.559 | 0.728 | 0.582 |  | 0.587 | 0.604
SK-LU-1 | 0.482 | 0.812 | 0.802 | 1 | 1.23 | 0.966 | 0.841 | 0.7 | 0.361 | 0.226 |  |  |  |  |  | 0.216 | 0.187 | 0.176 | 0.17 | 0.159
SK-MES-1 | 0.902 | 1.04 | 1.26 | 1.11 | 1.15 | 0.722 | 0.542 | 0.323 | 0.31 | 0.184 |  |  |  |  |  | 0.498 | 0.368 | 0.277 | 0.231 | 0.207
SW 900 |  |  |  |  |  |  |  |  |  |  | 0.666 | 0.518 | 0.575 | 0.47 | 0.268 | 0.189 | 0.167 | 0.15 | 0.169 | 0.17
SW 1573 | 1.18 | 0.861 | 1.02 | 1.12 | 0.893 | 0.629 | 0.619 | 0.564 | 0.457 | 0.43 |  |  |  |  |  | 0.181 | 0.237 | 0.13 | 0.157 | 0.163
